Assays:
hA2b/CHO = hA2b/CHO (Homo sapiens (Human), UniProt P29275); experiment: cAMP inhibition assay in hA2b/CHO cells, 10 μM adenosine; assay type: cell-based; details: read-out: cAMP & FLIPR IC50 (nM) hA2b;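 also: cells exposed to compound 30 min at 37 °C, then stimulated with adenosine a further 30 min, cAMP read after 60 min at room temperature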
Method: (§1) hA2a/CHO, hA2b/CHO, hA3/CHO and mA2a/CHO (Genscript) were plated at 5×10^3 cells/well into 384-well polystyrene plates at the day of experiment. Compounds were pre-incubated with cells for 30 min at 37° C., 5% CO2. Then 10 μM adenosine was added to the cells and incubated for 30 min at 37° C., 5% CO2. Detection reagent (CISBIO) was added and the plates were incubated for 60 min at room temperature. The signal was captured by Envision.

mA2a/CHO = mA2a/CHO (Mus musculus (Mouse), UniProt Q60613); experiment: cAMP inhibition assay in mA2a/CHO cells, 10 μM adenosine; assay type: cell-based; details: read-out: cAMP & FLIPR IC50 (nM) mA2a;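 also: compounds preincubated 30 min at 37 °C before the adenosine challenge, then 30 min further stimulation, readout after 60 min detection reagent incubation at room temperature in 384-well plates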
Method: as §1

[1] = biological target: hADORA1/CHO (hA1 expressing) cells (Homo sapiens (Human), UniProt P30542); experiment: cell-based; details: FLIPR inhibition, 10 μM adenosine, read-out: cAMP & FLIPR IC50 (nM) hA1
hA2a/CHO = hA2a/CHO (Homo sapiens (Human), UniProt P29274); experiment: cAMP inhibition assay in hA2a/CHO cells, 10 μM adenosine; assay type: cell-based; details: read-out: cAMP & FLIPR IC50 (nM) hA2a;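 also: compounds added to cells 30 min ahead of adenosine, then a further 30 min at 37 °C with adenosine before cAMP detection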
Chain of hA2a/CHO (P29274 whole entry): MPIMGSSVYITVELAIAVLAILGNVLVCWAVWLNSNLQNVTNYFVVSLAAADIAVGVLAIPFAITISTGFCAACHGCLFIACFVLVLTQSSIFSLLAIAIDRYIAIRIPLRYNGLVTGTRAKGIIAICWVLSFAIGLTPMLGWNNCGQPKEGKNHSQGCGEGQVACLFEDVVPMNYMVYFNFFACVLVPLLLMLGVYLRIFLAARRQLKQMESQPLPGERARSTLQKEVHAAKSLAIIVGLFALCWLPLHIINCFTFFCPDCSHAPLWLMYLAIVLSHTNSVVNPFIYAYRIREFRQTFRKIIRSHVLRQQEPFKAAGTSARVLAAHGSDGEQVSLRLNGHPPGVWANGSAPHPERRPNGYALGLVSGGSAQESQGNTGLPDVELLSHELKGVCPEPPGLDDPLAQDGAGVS
Method: as §1

Chain of hADORA1/CHO (hA1 expressing) cells (P30542 whole entry): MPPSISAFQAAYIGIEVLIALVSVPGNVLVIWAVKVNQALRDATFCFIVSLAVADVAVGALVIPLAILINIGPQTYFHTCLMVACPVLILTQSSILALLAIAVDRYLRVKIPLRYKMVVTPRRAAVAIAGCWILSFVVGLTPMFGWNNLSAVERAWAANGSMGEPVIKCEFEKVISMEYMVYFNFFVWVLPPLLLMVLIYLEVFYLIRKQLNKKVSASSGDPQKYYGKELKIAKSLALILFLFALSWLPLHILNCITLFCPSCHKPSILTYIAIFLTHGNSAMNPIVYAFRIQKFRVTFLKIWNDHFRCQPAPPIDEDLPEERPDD
Chain of hA2b/CHO (P29275 whole entry): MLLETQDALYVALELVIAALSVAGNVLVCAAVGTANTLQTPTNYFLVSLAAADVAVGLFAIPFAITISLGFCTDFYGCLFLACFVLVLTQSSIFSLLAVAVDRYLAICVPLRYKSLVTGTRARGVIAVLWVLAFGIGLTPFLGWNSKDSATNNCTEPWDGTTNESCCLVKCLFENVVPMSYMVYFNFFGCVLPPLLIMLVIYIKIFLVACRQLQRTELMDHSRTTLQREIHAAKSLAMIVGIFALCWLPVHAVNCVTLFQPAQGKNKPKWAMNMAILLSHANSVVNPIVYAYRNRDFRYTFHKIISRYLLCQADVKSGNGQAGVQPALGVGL
Chain of mA2a/CHO (Q60613 whole entry): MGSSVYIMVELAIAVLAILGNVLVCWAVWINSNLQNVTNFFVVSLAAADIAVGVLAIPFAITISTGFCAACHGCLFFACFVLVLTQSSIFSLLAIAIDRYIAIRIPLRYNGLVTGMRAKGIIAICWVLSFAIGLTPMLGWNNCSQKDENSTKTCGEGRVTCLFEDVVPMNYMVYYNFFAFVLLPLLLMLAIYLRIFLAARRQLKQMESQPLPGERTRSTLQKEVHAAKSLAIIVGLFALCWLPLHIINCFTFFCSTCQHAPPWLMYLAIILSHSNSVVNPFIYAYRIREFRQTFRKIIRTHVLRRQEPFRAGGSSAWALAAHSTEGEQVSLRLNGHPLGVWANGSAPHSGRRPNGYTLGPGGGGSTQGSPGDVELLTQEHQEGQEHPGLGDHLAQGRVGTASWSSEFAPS

Row | SMILES | IC50 (hA2b/CHO) | IC50 (mA2a/CHO) | IC50 [1] | IC50 (hA2a/CHO)
1 | COC(C)CNC(=O)c1nc(-c2ccc3ncc(C)n3c2)c(-c2ncco2)nc1N (single isomer, unassigned; isomer 1) [Example 248, 3-amino-N-(2-methoxypropyl)-6-(3-methylimidazo[1,2-a]pyridin-6-yl)-5-(oxazol-2-yl)pyrazine-2-carboxamide (isomer 1)] | 140 nM | 18 nM | 121 nM | 2.9 nM
2 | Cc1cnc2ccc(-c3nc(C(=O)NCC4(C)CCOC4)c(N)nc3-c3ncco3)cn12 (single isomer, unassigned; isomer 1) [Example 251, 3-amino-6-(3-methylimidazo[1,2-a]pyridin-6-yl)-N-((3-methyltetrahydrofuran-3-yl)methyl)-5-(oxazol-2-yl)pyrazine-2-carboxamide (isomer 1)] | 657 nM | 34 nM | 425 nM | 4.7 nM
3 | Cc1cnc2ccc(-c3nc(C(=O)N[C@@H]4CCCOC4)c(N)nc3-c3ncco3)cn12 (single isomer, unassigned; isomer 2) [Example 164, 3-amino-6-(3-methylimidazo[1,2-a]pyridin-6-yl)-5-(oxazol-2-yl)-N-(tetrahydro-2H-pyran-3-yl)pyrazine-2-carboxamide (isomer 2)] | 479 nM | 12.7 nM | > 10000 nM | 0.94 nM
4 | Cc1cnc2ccc(-c3nc(C(=O)NCC4CCCCO4)c(N)nc3-c3ncco3)cn12 (single isomer, unassigned; isomer 2) [Example 166, 3-amino-6-(3-methylimidazo[1,2-a]pyridin-6-yl)-5-(oxazol-2-yl)-N-((tetrahydro-2H-pyran-2-yl)methyl) pyrazine-2-carboxamide (isomer 2)] | 47 nM | 1.48 nM | 358 nM | 0.24 nM
5 | Cc1cnc2ccc(-c3nc(C(=O)NCC4CC(=O)N(C)C4)c(N)nc3-c3ncco3)cn12 (single isomer, unassigned; isomer 2) [Example 210, 3-amino-N-((1-methyl-5-oxopyrrolidin-3-yl)methyl)-6-(3-methylimidazo[1,2-a]pyridin-6-yl)-5-(oxazol-2-yl)pyrazine-2-carboxamide (isomer 2)] | 972 nM | 88 nM | 14700 nM | 11 nM
6 | COC(C)CNC(=O)c1nc(-c2ccc3ncc(C)n3c2)c(-c2ncco2)nc1N (single isomer, unassigned; isomer 2) [Example 241, 3-amino-N-(2-methoxypropyl)-6-(3-methylimidazo[1,2-a]pyridin-6-yl)-5-(oxazol-2-yl)pyrazine-2-carboxamide (isomer 2)] | 205 nM | 27 nM | 272 nM | 4 nM
7 | Cc1cnc2ccc(-c3nc(C(=O)NCC4(C)CCCN4C)c(N)nc3-c3ncco3)cn12 (single isomer, unassigned; isomer 2) [Example 247, 3-amino-N-((1,2-dimethylpyrrolidin-2-yl)methyl)-6-(3-methylimidazo[1,2-a]pyridin-6-yl)-5-(oxazol-2-yl)pyrazine-2-carboxamide (isomer 2)] | 2000 nM | 345 nM | 1490 nM | 36 nM
8 | Cc1cnc2ccc(-c3nc(C(=O)NCC4CN(C)CCO4)c(N)nc3-c3ccc(F)cc3)cn12 (single isomer, unassigned; isomer 2) [Example 250, 3-amino-5-(4-fluorophenyl)-6-(3-methylimidazo[1,2-a]pyridin-6-yl)-N-((4-methylmorpholin-2-yl)methyl) pyrazine-2-carboxamide (isomer 2)] | 212 nM | 31 nM | 36 nM | 5 nM
9 | Cc1cnc2ccc(-c3nc(C(=O)NCC4(C)CCOC4)c(N)nc3-c3ncco3)cn12 (single isomer, unassigned; isomer 2) [Example 252, 3-amino-6-(3-methylimidazo[1,2-a]pyridin-6-yl)-N-((3-methyltetrahydrofuran-3-yl)methyl)-5-(oxazol-2-yl)pyrazine-2-carboxamide (isomer 2)] | 821 nM | 30 nM | 260 nM | 2.9 nM
10 | CN1CCCC1CNC(=O)c1nc(-c2ccc3ncc(Cl)n3c2)c(-c2ncco2)nc1N (stereo in doubt) [Cmpd. 209, 3-amino-6-[3-chloroimidazo[1,2-a]pyridin-6-yl]-N-[[(2S)-1-methylpyrrolidin-2-yl]methyl]-5-(1,3-oxazol-2-yl)pyrazine-2-carboxamide] | 1260 nM | 134 nM | > 10000 nM | 14 nM
11 | CNCCOc1cccnc1CNC(=O)c1nc(-c2ccc3ncc(C)n3c2)c(-c2ccc(F)cc2)nc1N [Cmpd. 199, 3-amino-5-(4-fluorophenyl)-N-([3-[2-(methylamino)ethoxy]pyridin-2-yl]methyl)-6-[3-methylimidazo[1,2-a]pyridin-6-yl]pyrazine-2-carboxamide] | 102 nM | 1.6 nM | 34 nM | 0.7 nM
12 | Cc1cnc2ccc(-c3nc(C(=O)NC[C@H]4CCN(C(=O)C5CC5)C4)c(N)nc3-c3ncco3)cn12 [Cmpd. 219, 3-amino-N-[[(3R)-1-cyclopropanecarbonylpyrrolidin-3-yl]methyl]-6-[3-methylimidazo[1,2-a]pyridin-6-yl]-5-(1,3-oxazol-2-yl)pyrazine-2-carboxamide] | 2300 nM | 220 nM | > 10000 nM | 4.9 nM
13 | Cc1cnc2ccc(-c3nc(C(=O)NC[C@@H]4CCN(C(=O)C5CC5)C4)c(N)nc3-c3ncco3)cn12 [Cmpd. 221, 3-amino-N-[[(3S)-1-cyclopropanecarbonylpyrrolidin-3-yl]methyl]-6-[3-methylimidazo[1,2-a]pyridin-6-yl]-5-(1,3-oxazol-2-yl)pyrazine-2-carboxamide] | 1030 nM | 33 nM | 7540 nM | 1.6 nM
14 | Cc1cnc2ccc(-c3nc(C(=O)NCc4cccc(N[C@H]5C[C@@H](N(C)C)C5)n4)c(N)nc3-c3ncco3)cn12 [Cmpd. 224, Cis-3-amino-6-[3-methylimidazo[1,2-a]pyridin-6-yl]-5-(1,3-oxazol-2-yl)-N-[(6-[[3-(di-methylamino)cyclobutyl]amino]pyridin-2-yl)methyl]pyrazine-2-carboxamide] | 245 nM | 27 nM | 7880 nM | 3.2 nM
15 | Cc1cnc2ccc(-c3nc(C(=O)NCc4cccc(N[C@H]5C[C@H](N(C)C)C5)n4)c(N)nc3-c3ncco3)cn12 [Cmpd. 227, Trans-3-amino-6-[3-methyl-imidazo[1,2-a]pyridin-6-yl]-5-(1,3-oxazol-2-yl)-N-[(6-[[3-(dimethylamino)cyclobutyl]amino]pyridin-2-yl)methyl]pyrazine-2-carboxamide] | 99 nM | 24 nM | 781 nM | 4.4 nM
16 | Cc1cnc2ccc(-c3nc(C(=O)NC[C@H]4CCCO4)c(N)nc3-n3nccn3)cn12 [Cmpd. 229, 3-amino-6-[3-methylimidazo[1,2-a]pyridin-6-yl]-N-[[(2R)-oxolan-2-yl]methyl]-5-(2H-1,2,3-triazol-2-yl)pyrazine-2-carboxamide] | 157 nM | 19 nM | 1650 nM | 2.4 nM
17 | Cc1ccc(-c2nc(N)c(C(=O)NCc3c(F)cccc3F)nc2-c2ccc(=O)n(C)c2)o1 [Example 2, 3-amino-N-[(2,6-difluorophenyl)methyl]-6-(1-methyl-6-oxo-1,6-dihydropyridin-3-yl)-5-(5-methylfuran-2-yl)pyrazine-2-carboxamide] | 92 nM | 21 nM | 26 nM | 0.9 nM
18 | Cc1ccc(-c2nc(N)c(CNC(=O)c3c(F)cccc3F)nc2-c2ccc(=O)n(C)c2)o1 [Example 4, N-((3-amino-6-(1-methyl-6-oxo-1,6-dihydropyridin-3-yl)-5-(5-methylfuran-2-yl)pyrazin-2-yl)methyl)-2,6-difluorobenzamide] | 1220 nM | 43 nM | 18 nM | 15 nM
19 | Cc1cc(-c2nc(C(=O)NCc3c(F)cccc3F)c(N)nc2-c2ncco2)cc(C)n1 [Example 5, 3-amino-N-(2,6-difluorobenzyl)-6-(2,6-dimethylpyridin-4-yl)-5-(oxazol-2-yl)pyrazine-2-carboxamide] | ≥ 10000 nM | 219 nM | 10000 nM | 28 nM
20 | CC1CN(c2nc(C(=O)NCc3c(F)cccc3F)c(N)nc2-c2ccc(F)cc2)CC(C)O1 (stereo not shown) [Example 6, 3-amino-N-(2,6-difluorobenzyl)-6-(2,6-dimethylmorpholino)-5-(4-fluorophenyl)pyrazine-2-carboxamide] | ≥ 10000 nM | 1060 nM | 8840 nM | 87 nM
21 | Cn1cc(-c2nc(CNC(=O)c3c(F)cccc3C(F)(F)F)c(N)nc2-c2ccc(F)cc2)ccc1=O [Example 7, N-[[3-amino-5-(4-fluorophenyl)-6-(1-methyl-6-oxo-1,6-dihydropyridin-3-yl)pyrazin-2-yl]methyl]-2-fluoro-6-(trifluoromethyl)benzamide] | 3860 nM | 237 nM | 98 nM | 166 nM
22 | Cc1cc(-c2nc(CNC(=O)c3ccccn3)c(N)nc2-c2ccc(F)cc2)cc(C)n1 [Example 8, N-[[3-amino-6-(2,6-dimethylpyridin-4-yl)-5-(4-fluorophenyl)pyrazin-2-yl]methyl]pyridine-2-carboxamide] | ≥ 10000 nM | 390 nM | 3400 nM | 116 nM

From patent publication US10898481B2 (priority 2018, dated 2021)
